From ChEMBL document CHEMBL1153717 come the findings set out here.

pKi: −log10 of the molar value.

Dual specificity protein phosphatase 3, sequence (P51452 whole entry): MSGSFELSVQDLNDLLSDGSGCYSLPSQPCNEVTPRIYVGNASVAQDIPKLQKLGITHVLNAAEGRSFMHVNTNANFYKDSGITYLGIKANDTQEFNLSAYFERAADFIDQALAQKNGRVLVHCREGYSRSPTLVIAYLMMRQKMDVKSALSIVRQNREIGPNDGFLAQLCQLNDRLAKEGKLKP

The first assay deals with Receptor-type tyrosine-protein phosphatase F (Homo sapiens, UniProt P10586). The assay can be described thus: Inhibition of human LAR.
Receptor-type tyrosine-protein phosphatase F, sequence (P10586 whole entry): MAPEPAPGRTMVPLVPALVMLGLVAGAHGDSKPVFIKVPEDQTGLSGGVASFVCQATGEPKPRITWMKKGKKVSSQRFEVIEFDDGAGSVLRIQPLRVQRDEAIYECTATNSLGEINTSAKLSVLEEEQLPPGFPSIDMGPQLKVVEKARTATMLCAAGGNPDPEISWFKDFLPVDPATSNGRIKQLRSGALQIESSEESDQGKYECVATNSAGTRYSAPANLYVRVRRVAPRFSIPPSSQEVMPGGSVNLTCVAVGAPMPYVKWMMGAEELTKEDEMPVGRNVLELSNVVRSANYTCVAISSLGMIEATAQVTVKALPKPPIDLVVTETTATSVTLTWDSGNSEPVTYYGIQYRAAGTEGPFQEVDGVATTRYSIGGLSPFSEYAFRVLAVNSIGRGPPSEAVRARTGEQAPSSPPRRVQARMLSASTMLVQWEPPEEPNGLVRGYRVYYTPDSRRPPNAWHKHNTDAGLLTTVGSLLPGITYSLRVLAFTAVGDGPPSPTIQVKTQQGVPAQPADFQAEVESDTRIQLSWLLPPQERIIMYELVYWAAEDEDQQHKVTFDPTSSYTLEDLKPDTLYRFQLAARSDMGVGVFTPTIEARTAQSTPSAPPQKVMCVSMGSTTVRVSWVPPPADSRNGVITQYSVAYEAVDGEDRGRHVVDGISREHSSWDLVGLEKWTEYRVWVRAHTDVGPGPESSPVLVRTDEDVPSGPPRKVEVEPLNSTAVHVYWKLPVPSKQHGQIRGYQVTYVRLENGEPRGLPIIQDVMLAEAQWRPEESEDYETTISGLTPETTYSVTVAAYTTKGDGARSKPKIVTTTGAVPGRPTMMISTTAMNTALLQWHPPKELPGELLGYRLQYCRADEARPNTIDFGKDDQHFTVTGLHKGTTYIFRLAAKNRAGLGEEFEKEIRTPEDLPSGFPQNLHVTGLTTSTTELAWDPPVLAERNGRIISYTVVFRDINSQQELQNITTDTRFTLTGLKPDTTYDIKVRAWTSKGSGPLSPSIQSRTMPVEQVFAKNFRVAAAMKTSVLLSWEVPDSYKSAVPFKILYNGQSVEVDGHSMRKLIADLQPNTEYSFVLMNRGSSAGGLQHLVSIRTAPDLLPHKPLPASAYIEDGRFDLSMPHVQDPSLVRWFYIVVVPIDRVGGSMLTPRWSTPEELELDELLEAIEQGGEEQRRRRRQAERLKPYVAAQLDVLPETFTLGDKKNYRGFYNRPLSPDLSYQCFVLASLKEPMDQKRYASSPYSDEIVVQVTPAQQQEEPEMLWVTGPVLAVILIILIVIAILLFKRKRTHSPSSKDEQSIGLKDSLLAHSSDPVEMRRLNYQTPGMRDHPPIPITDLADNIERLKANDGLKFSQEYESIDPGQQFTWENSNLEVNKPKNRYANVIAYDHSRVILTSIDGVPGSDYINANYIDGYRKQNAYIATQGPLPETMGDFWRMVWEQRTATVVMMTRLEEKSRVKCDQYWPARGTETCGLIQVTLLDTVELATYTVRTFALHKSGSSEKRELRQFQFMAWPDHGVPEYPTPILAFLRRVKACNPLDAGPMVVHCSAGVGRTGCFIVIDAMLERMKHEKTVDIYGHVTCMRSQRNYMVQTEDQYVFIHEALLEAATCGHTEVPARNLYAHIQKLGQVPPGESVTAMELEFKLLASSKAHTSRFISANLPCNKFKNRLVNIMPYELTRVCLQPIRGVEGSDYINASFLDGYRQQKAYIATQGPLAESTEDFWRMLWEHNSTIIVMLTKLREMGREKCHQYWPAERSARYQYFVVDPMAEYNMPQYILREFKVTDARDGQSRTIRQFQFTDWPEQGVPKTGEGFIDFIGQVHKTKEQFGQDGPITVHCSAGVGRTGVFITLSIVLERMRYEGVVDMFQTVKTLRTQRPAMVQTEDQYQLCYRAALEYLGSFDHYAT
Settings: not given
Turning to `O=C(Nc1cc(C(F)(F)F)c(Br)c(C(F)(F)F)c1)c1ccc(C(F)(F)P(=O)(O)O)cc1`, the pKi (commonly −log10 of the Ki, conventionally taken in molar units) is less than 4.00.

In the next assay the target is T1, Low molecular weight phosphotyrosine protein phosphatase (Homo sapiens, UniProt P24666).
T1 sequence (P24666 whole entry): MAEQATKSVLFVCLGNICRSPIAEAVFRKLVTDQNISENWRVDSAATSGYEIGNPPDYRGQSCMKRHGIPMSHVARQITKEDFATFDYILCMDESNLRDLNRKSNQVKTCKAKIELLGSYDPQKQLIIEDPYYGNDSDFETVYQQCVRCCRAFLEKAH
Briefly: Inhibition of human HCPTPA.
Settings: not given
The compound `O=C(Nc1cc(C(F)(F)F)c(Br)c(C(F)(F)F)c1)c1ccc(C(F)(F)P(=O)(O)O)cc1` showed a pKi of 4.83.

In the next assay the target is T2, Low molecular weight protein-tyrosine phosphatase A (Mycobacterium tuberculosis, UniProt P9WIA1).
T2 sequence (P9WIA1 whole entry): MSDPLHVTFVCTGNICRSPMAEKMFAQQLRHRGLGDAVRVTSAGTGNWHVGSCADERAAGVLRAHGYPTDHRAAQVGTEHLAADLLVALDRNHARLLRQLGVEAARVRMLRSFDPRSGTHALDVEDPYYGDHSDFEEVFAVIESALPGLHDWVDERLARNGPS
The assay can be described thus: Inhibition of Mycobacterium tuberculosis PtpA.
Settings: not given
Turning to `O=C(Nc1nc2ccccc2[nH]1)c1ccc(C(F)(F)P(=O)(O)O)cc1`, the Ki entry is on record as “ND(Insoluble)”.

The same assay, now with this note: read-out: Ki.
On to `O=P(O)(O)C(F)(F)c1ccc(Br)cc1`, for which the pKi was 4.03.
Same read-out and setting: the figure for `CC(C)NC(=O)c1ccc(C(F)(F)P(=O)(O)O)cc1` is less than 4.00.
Turning to `O=C(Nc1ccccc1C(F)(F)F)c1ccc(C(F)(F)P(=O)(O)O)cc1`, the pKi was 4.26.
Same read-out and setting: the figure for `O=C(Nc1ccc(F)cc1)c1ccc(C(F)(F)P(=O)(O)O)cc1` is 4.64; for `CN(C(=O)c1ccc(C(F)(F)P(=O)(O)O)cc1)c1ccccc1` it is less than 4.00; for `O=P(O)(O)C(F)(F)c1ccc(CNc2ccccc2)cc1` it is less than 4.00.
For the compound `O=C(Nc1ccc(Cl)c(C(F)(F)F)c1)c1ccc(C(F)(F)P(=O)(O)O)cc1`, the pKi was 5.22.
The same measure, in the same setting: next, `O=C(Nc1ccc(Br)c(C(F)(F)F)c1)c1ccc(C(F)(F)P(=O)(O)O)cc1`: 5.31.
Take `O=C(Nc1ccc(C(F)(F)P(=O)(O)O)cc1)c1ccccc1`: the pKi was 4.18.
Same read-out and setting: next, `O=C(Nc1ccccc1)c1cccc(C(F)(F)P(=O)(O)O)c1`: less than 4.00.
Same read-out and setting: the figure for `O=P(O)(O)C(F)(F)c1ccc2c(cnn2Cc2ccccc2)c1` is less than 4.00; for `O=P(O)(O)C(F)(F)c1ccc2nn(Cc3ccccc3)cc2c1` it is 4.07.
For the compound `CCN1CCC(NC(=O)c2ccc(C(F)(F)P(=O)(O)O)cc2)CC1`, the pKi is less than 4.00.
On to `O=P(O)(O)C(F)(F)c1ccc(COc2ccccc2)cc1`, for which the pKi was less than 4.00.
Still for that read-out and setting: next, `CNC(=O)c1ccc(C(F)(F)P(=O)(O)O)cc1`: less than 4.00; `O=C(NCC1CCCC1)c1ccc(C(F)(F)P(=O)(O)O)cc1`: less than 4.00; `O=C(NCc1ccccc1)c1ccc(C(F)(F)P(=O)(O)O)cc1`: 4.37.
With `O=C(Nc1nccs1)c1ccc(C(F)(F)P(=O)(O)O)cc1`, the negative-log Ki (pKi) was 4.48.
As to `O=C(Nc1ccccc1)c1ccc(C(F)(F)P(=O)(O)O)cc1`, the pKi was 4.62.
Same read-out and setting: next, `O=C(Nc1ccccc1Br)c1ccc(C(F)(F)P(=O)(O)O)cc1`: 4.35; `O=C(Nc1cccc(F)c1)c1ccc(C(F)(F)P(=O)(O)O)cc1`: 4.38; `O=C(Nc1cccc(Cl)c1)c1ccc(C(F)(F)P(=O)(O)O)cc1`: 4.46.
For `O=C(Nc1cccc(Br)c1)c1ccc(C(F)(F)P(=O)(O)O)cc1`, the negative logarithm of the Ki (pKi) is 4.74.
On the same count and under the same terms, next, `O=C(Nc1cccc(C(F)(F)F)c1)c1ccc(C(F)(F)P(=O)(O)O)cc1`: 4.97; `O=C(Nc1ccc(C(F)(F)F)cc1)c1ccc(C(F)(F)P(=O)(O)O)cc1`: 4.73; `O=C(Nc1ccc(Cl)cc1)c1ccc(C(F)(F)P(=O)(O)O)cc1`: 4.77.
The same measure, in the same setting: the figure for `O=C(Nc1ccc(Br)cc1)c1ccc(C(F)(F)P(=O)(O)O)cc1` is 4.99.
On to `O=C(Nc1ccc(F)c(C(F)(F)F)c1)c1ccc(C(F)(F)P(=O)(O)O)cc1`, for which the pKi is 4.94.
The same measure, in the same setting: the figure for `O=C(O)c1ccc(C(F)(F)P(=O)(O)O)cc1` is less than 4.00.
Still for that read-out and setting: next, `O=C(Cc1ccc(C(F)(F)P(=O)(O)O)cc1)Nc1ccccc1`: less than 4.00; `O=C(Nc1cc(C(F)(F)F)cc(C(F)(F)F)c1)c1ccc(C(F)(F)P(=O)(O)O)cc1`: 5.48.
On the same count and under the same terms, next, `O=C(Nc1cc(C(F)(F)F)c(Br)c(C(F)(F)F)c1)c1ccc(C(F)(F)P(=O)(O)O)cc1`: 5.85; `O=[N+]([O-])c1ccc(C(F)(F)P(=O)(O)O)cc1`: 4.12; `Cn1cc(-c2ccc(C(F)(F)P(=O)(O)O)cc2)cn1`: less than 4.00.
Turning to `O=C(NC1CCCC1)c1ccc(C(F)(F)P(=O)(O)O)cc1`, the pKi was 4.14.
On to `O=C(NCCc1ccccc1)c1ccc(C(F)(F)P(=O)(O)O)cc1`, for which the negative logarithm of the Ki (pKi) was 4.21.
Same read-out and setting: the figure for `O=C(NCC(F)(F)F)c1ccc(C(F)(F)P(=O)(O)O)cc1` is 4.30.
The same measure, in the same setting: next, `O=P(O)(O)C(F)(F)c1ccc(S(=O)(=O)Nc2ccccc2)cc1`: less than 4.00.
Still for that read-out and setting: the figure for `O=C(Nc1ccc(C(F)(F)P(=O)(O)O)cc1)Nc1cc(C(F)(F)F)cc(C(F)(F)F)c1` is 5.51; for `O=C(Nc1ccccc1F)c1ccc(C(F)(F)P(=O)(O)O)cc1` it is less than 4.00; for `O=C(Nc1ccccc1Cl)c1ccc(C(F)(F)P(=O)(O)O)cc1` it is 4.17.
For `O=P(O)(O)C(F)(F)c1ccc(-c2ccccc2)cc1`, the pKi was less than 4.00.

The target of another assay is T3, Tyrosine-protein phosphatase non-receptor type 2 (Homo sapiens, UniProt P17706).
T3 sequence (P17706 whole entry): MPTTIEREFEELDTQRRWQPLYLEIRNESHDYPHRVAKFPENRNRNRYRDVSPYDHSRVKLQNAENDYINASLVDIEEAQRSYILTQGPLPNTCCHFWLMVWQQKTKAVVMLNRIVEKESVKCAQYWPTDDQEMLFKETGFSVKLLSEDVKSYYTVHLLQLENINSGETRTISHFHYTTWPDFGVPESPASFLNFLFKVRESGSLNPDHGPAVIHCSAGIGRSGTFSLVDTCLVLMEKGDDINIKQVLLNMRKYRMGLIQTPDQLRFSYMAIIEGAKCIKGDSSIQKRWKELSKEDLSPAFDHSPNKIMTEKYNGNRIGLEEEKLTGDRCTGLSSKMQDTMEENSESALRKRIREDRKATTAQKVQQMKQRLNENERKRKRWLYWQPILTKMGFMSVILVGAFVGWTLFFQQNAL
Briefly: Inhibition of human TCPTP.
Settings: not given
Consider `O=C(Nc1cc(C(F)(F)F)c(Br)c(C(F)(F)F)c1)c1ccc(C(F)(F)P(=O)(O)O)cc1`, for which the pKi is less than 4.00.

A further assay concerns the target Dual specificity protein phosphatase 3 (Homo sapiens, UniProt P51452). The assay can be described thus: Inhibition of human VHR.
Settings: not given
`O=C(Nc1cc(C(F)(F)F)c(Br)c(C(F)(F)F)c1)c1ccc(C(F)(F)P(=O)(O)O)cc1` showed a pKi of less than 4.00.

A further assay has as its target T4, Receptor-type tyrosine-protein phosphatase C (Homo sapiens, UniProt P08575).
T4 sequence (P08575 whole entry): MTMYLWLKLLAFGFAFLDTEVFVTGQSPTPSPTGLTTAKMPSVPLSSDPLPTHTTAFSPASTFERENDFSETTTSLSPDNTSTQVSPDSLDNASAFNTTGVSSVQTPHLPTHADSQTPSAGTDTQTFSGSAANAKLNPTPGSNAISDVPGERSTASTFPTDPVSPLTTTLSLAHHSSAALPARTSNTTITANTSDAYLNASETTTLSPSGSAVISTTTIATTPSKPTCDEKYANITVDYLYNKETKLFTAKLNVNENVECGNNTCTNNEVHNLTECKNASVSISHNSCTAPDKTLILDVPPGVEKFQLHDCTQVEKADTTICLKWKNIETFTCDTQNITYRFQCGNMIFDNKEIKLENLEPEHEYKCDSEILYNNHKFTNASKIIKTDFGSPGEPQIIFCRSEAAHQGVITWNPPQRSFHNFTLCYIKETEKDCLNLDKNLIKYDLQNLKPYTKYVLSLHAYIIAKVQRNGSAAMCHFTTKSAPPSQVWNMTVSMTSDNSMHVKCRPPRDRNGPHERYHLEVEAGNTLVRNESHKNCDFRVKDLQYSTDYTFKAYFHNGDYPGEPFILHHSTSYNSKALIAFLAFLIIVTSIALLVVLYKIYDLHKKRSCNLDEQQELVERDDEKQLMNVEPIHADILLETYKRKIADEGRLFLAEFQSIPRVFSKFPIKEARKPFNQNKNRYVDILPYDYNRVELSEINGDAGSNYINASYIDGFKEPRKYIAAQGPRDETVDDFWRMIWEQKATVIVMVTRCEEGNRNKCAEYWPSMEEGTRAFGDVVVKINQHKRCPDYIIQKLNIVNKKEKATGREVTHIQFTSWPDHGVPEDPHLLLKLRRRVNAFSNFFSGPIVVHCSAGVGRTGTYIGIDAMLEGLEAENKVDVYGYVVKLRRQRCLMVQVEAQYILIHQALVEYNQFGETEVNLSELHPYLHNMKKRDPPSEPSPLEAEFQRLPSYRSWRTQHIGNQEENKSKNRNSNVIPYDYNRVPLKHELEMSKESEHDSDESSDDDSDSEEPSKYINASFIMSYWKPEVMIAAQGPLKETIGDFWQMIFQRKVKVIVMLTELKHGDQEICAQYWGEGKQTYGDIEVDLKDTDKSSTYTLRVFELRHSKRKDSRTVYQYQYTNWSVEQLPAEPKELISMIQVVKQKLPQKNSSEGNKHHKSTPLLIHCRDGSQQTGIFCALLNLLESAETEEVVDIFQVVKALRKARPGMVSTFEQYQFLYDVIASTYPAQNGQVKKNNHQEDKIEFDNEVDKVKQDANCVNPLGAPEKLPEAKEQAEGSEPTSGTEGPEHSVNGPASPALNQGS
Briefly: Inhibition of human CD45.
Settings: not given
Compound `O=C(Nc1cc(C(F)(F)F)c(Br)c(C(F)(F)F)c1)c1ccc(C(F)(F)P(=O)(O)O)cc1` showed a pKi of less than 4.00.

For another assay, the target named is T5, Tyrosine-protein phosphatase non-receptor type 1 (Homo sapiens, UniProt P18031).
T5 sequence (P18031 whole entry): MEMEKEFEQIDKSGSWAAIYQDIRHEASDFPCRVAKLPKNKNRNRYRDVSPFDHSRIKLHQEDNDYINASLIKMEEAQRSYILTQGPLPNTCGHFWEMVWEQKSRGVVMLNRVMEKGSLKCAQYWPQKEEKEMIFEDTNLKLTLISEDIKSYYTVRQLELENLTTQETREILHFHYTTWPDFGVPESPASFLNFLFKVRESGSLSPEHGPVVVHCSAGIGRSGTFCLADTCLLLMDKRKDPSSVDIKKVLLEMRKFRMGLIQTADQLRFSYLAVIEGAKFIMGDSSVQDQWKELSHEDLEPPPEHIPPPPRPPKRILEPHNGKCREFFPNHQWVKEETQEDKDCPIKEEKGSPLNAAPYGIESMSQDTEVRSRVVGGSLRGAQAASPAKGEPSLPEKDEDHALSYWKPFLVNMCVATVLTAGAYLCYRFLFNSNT
The assay can be described thus: Inhibition of human PTP1B.
Settings: not given
Regarding `O=C(Nc1cc(C(F)(F)F)c(Br)c(C(F)(F)F)c1)c1ccc(C(F)(F)P(=O)(O)O)cc1`, the pKi was less than 4.00.
